Measurements reported in ChEMBL document CHEMBL5244281, “Tackling multidrug-resistant Staphylococcus aureus by natural products and their analogues acting as NorA efflux pump inhibitors” (Bioorg Med Chem, 2023).
≈ marks a conversion by molar mass, not a printed value.

How the values were obtained:
Staphylococcus aureus [1] = assay: Antibacterial activity against wild type Staphylococcus aureus ATCC 25923 assessed as bacterial growth inhibition incubated for 24 hrs by resazurin based microdilution assay; format: functional
Staphylococcus aureus [2] = assay: Antibacterial activity against Staphylococcus aureus IS-58 overexpressing TetK efflux protein assessed as bacterial growth inhibition incubated for 24 hrs by resazurin based microdilution assay; format: functional
Staphylococcus aureus [3] = assay: Antibacterial activity against Staphylococcus aureus RN4220 overexpressing […] efflux protein assessed as bacterial growth inhibition incubated for 24 hrs by resazurin based microdilution assay; format: functional
Staphylococcus aureus [4] = assay: Antibacterial activity against Staphylococcus aureus 1199B overexpressing NorA efflux protein assessed as bacterial growth inhibition incubated for 24 hrs by resazurin based microdilution assay; format: functional
Staphylococcus aureus [5] = assay: Antibacterial activity against Staphylococcus aureus K2068 overexpressing mepA gene assessed as bacterial growth inhibition incubated for 24 hrs by resazurin based microdilution assay; format: functional
Staphylococcus aureus [6] = assay: Antibacterial activity against Staphylococcus aureus K4414 overexpressing qacA/B gene assessed as bacterial growth inhibition incubated for 24 hrs by resazurin based microdilution assay; format: functional
Staphylococcus aureus [7] = assay: Antibacterial activity against Staphylococcus aureus K4100 overexpressing qacC gene assessed as bacterial growth inhibition incubated for 24 hrs by resazurin based microdilution assay; format: functional
[8] = target: T1, Quinolone resistance protein NorA (Staphylococcus aureus) (UniProt P0A0J7); details: 1199B
T1 sequence (whole entry): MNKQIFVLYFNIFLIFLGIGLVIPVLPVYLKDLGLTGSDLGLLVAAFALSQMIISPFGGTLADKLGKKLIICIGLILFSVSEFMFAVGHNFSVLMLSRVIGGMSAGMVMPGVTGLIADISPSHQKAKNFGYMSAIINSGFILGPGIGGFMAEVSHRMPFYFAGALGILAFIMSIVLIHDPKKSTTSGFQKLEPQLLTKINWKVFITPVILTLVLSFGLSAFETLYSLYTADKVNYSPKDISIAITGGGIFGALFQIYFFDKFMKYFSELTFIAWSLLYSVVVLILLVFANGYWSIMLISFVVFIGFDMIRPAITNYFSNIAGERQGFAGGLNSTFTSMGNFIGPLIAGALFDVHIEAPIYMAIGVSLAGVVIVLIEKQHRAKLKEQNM

Staphylococcus aureus [9] = assay: Antibacterial activity against norfloxacin resistant Staphylococcus aureus 1199B overexpressing NorA assessed as bacterial growth inhibition incubated for 24 hrs by resazurin based microdilution assay; format: functional
Staphylococcus aureus [10] = assay: Antibacterial activity against Staphylococcus aureus ATCC 25923 assessed as bacterial growth inhibition incubated for 24 hrs by resazurin based microdilution assay; format: functional
Staphylococcus aureus [11] = assay: Antibacterial activity against Staphylococcus aureus 1199 assessed as bacterial growth inhibition incubated for 24 hrs by resazurin based microdilution assay; format: functional
Staphylococcus aureus [12] = assay: Antibacterial activity against Staphylococcus aureus SA10 assessed as bacterial growth inhibition incubated for 24 hrs by resazurin based microdilution assay; format: functional
Escherichia coli [13] = assay: Antibacterial activity against Escherichia coli ATCC […] assessed as bacterial growth inhibition incubated for 24 hrs by resazurin based microdilution assay; format: functional
Candida albicans = assay: Antifungal activity against Candida albicans NEWP031 assessed as bacterial growth inhibition incubated for 24 hrs by resazurin based microdilution assay; format: functional
[14] = target: T1, Quinolone resistance protein NorA (Staphylococcus aureus); assay: Potentiation of EtBr-induced inhibition of NorA efflux in Staphylococcus aureus 1199B overexpressing NorA assessed as reduction in EtBr MIC at 256 ug/ml incubated for 24 hrs by resazurin based assay (Rvb= 32 ug/ml); details: dose 256.0 µg/ml
[15] = target: T1, Quinolone resistance protein NorA (Staphylococcus aureus); assay: Potentiation of norfloxacin-induced inhibition of NorA efflux in Staphylococcus aureus 1199B overexpressing NorA assessed as reduction in norfloxacin MIC at 1/8 times of MIC incubated for 24 hrs by CLSI based assay (Rvb= 322.54 ug/ml)
[16] = target: Multidrug export protein MepA (Staphylococcus aureus (strain NCTC 8325)) (UniProt Q2G140); assay: Potentiation of EtBr-induced inhibition of MepA efflux in Staphylococcus aureus K2068 overexpressing MepA assessed as reduction in EtBr MIC at 1/8 times of MIC incubated for 24 hrs by CLSI based assay (Rvb= 322.54 ug/ml)
[17] = target: T1, Quinolone resistance protein NorA (Staphylococcus aureus); details: 1199B, dose 128.0 µg/ml, time 24.0 hrs
Staphylococcus aureus [18] = assay: Antibacterial activity against methicillin-resistant Staphylococcus aureus clinical isolate assessed as bacterial growth inhibition by broth dilution method; format: functional
[19] = target: T1, Quinolone resistance protein NorA (Staphylococcus aureus); assay: Inhibition of NorA efflux pump in methicillin-resistant Staphylococcus aureus clinical isolate assessed as EtBr MIC using EtBr as substrate at 64 ug/ml and measured for 20 mins by spectrofluorimetric analysis (Rvb=[…] ug/ml); details: dose 64.0 µg/ml
Staphylococcus aureus [20] = assay: Synergistic antibacterial activity against methicillin-resistant Staphylococcus aureus clinical isolate assessed as fractional inhibitory concentration index in presence of ciprofloxacin by checkerboard assay; format: functional
[21] = target: T1, Quinolone resistance protein NorA (Staphylococcus aureus); assay: Inhibition of NorA efflux pump in methicillin-resistant Staphylococcus aureus clinical isolate assessed as decrease in ciprofloxacin MIC and measured for 20 mins in presence of ciprofloxacin by spectrofluorimetric analysis (Rvb=128 ug/ml)
Staphylococcus aureus [22] = assay: Antimicrobial activity against Staphylococcus aureus ATCC 29213 assessed as bacterial growth inhibition incubated for 18 hrs by broth microdilution assay; format: functional
Staphylococcus aureus [23] = assay: Antimicrobial activity against Staphylococcus aureus ATCC 43300 assessed as bacterial growth inhibition incubated for 18 hrs by broth microdilution assay; format: functional
Staphylococcus aureus [24] = assay: Antimicrobial activity against Staphylococcus aureus BAA-44 assessed as bacterial growth inhibition incubated for 18 hrs by broth microdilution assay; format: functional
Escherichia coli [25] = assay: Antimicrobial activity against Escherichia coli ATCC 25922 assessed as bacterial growth inhibition incubated for 18 hrs by broth microdilution assay; format: functional
Enterococcus faecalis = assay: Antimicrobial activity against Enterococcus faecalis ATCC 29212 assessed as bacterial growth inhibition incubated for 18 hrs by broth microdilution assay; format: functional
Enterococcus faecium = assay: Antimicrobial activity against Enterococcus faecium ATCC 700221 assessed as bacterial growth inhibition incubated for 18 hrs by broth microdilution assay; format: functional
Klebsiella pneumoniae = assay: Antimicrobial activity against Klebsiella pneumoniae 1213-2 assessed as bacterial growth inhibition incubated for 18 hrs by broth microdilution assay; format: functional
Staphylococcus aureus [26] = assay: Antibacterial activity against methicillin-resistant Staphylococcus aureus 1199B overexpressing NorA gene assessed as bacterial growth inhibition; format: functional
Staphylococcus aureus [27] = assay: Synergistic antibacterial activity against Staphylococcus aureus 1199B overexpressing NorA gene assessed as fractional inhibitory concentration index at 2 ug/ml in presence of norfloxacin; format: functional; details: dose 2 µg/ml
[28] = target: T1, Quinolone resistance protein NorA (Staphylococcus aureus); assay: Potentiation of ciprofloxacin-mediated inhibition of NorA efflux pump in Staphylococcus aureus 1199B overexpressing NorA efflux pump assessed as reduction in ciprofloxacin MIC (Rvb= […] ug/ml)
Staphylococcus aureus [29] = assay: Antibacterial activity against Staphylococcus aureus 1199B overexpressing NorA assessed as bacterial growth inhibition incubated for 18 hrs by MTT assay; format: functional
Staphylococcus aureus [30] = assay: Antibacterial activity against tetracycline-resistant Staphylococcus aureus XU212 assessed as bacterial growth inhibition incubated for 18 hrs by MTT assay; format: functional
Staphylococcus aureus [31] = assay: Antibacterial activity against Staphylococcus aureus ATCC25923 assessed as bacterial growth inhibition incubated for 18 hrs by MTT assay; format: functional
Staphylococcus aureus [32] = assay: Antibacterial activity against Staphylococcus aureus RN4220 assessed as bacterial growth inhibition incubated for 18 hrs by MTT assay; format: functional
Staphylococcus aureus [33] = assay: Antibacterial activity against Staphylococcus aureus EMRSA-15 assessed as bacterial growth inhibition incubated for 18 hrs by MTT assay; format: functional
Staphylococcus aureus [34] = assay: Antibacterial activity against Staphylococcus aureus EMRSA-16 assessed as bacterial growth inhibition incubated for 18 hrs by MTT assay; format: functional
Staphylococcus aureus [35] = assay: Synergistic antibacterial activity against Staphylococcus aureus 1199B overexpressing NorA assessed as fractional Inhibitory concentration index at 64 ug/ml in presence of norfloxacin by broth dilution method; format: functional; details: dose 64 µg/ml
[36] = target: T1, Quinolone resistance protein NorA (Staphylococcus aureus); details: 1199B, dose 64.0 µg/ml
Escherichia coli [37] = assay: Potentiation of gentamicin-induced antibacterial activity against Escherichia coli 06 assessed as gentamicin MIC at 1/8 times of MIC (Rvb= 322 ug/ml); format: functional
[38] = target: T1, Quinolone resistance protein NorA (Staphylococcus aureus); assay: Potentiation of EtBr-induced inhibition of NorA efflux pump in Staphylococcus aureus 1199B overexpressing NorA efflux pump assessed as reduction in EtBr MIC at 1/8 times of MIC by resazurin based assay (Rvb= 512 ug/ml)
Staphylococcus aureus [39] = assay: Antibacterial activity against norfloxacin resistant Staphylococcus aureus 1199 assessed as bacterial growth inhibition; format: functional
Staphylococcus aureus [40] = assay: Antibacterial activity against norfloxacin resistant Staphylococcus aureus 1199B overexpressing NorA assessed as bacterial growth inhibition; format: functional

## COc1ccc(/C=C/C(=O)c2cc(O)c(O)c(OC)c2)cc1OC
Staphylococcus aureus [1]
  MIC: 100 µg/mL (≈ 303 µM)
Staphylococcus aureus [2]
  MIC: 100 µg/mL (≈ 303 µM)
Staphylococcus aureus [3]
  MIC: 100 µg/mL (≈ 303 µM)
Staphylococcus aureus [4]
  MIC: 100 µg/mL (≈ 303 µM)
Staphylococcus aureus [5]
  MIC: 100 µg/mL (≈ 303 µM)
Staphylococcus aureus [6]
  MIC: 100 µg/mL (≈ 303 µM)
Staphylococcus aureus [7]
  MIC: 100 µg/mL (≈ 303 µM)
[8]
  MIC: 16 µg/mL (≈ 48.4 µM)

## C=CCc1ccc(OC)cc1 [ESTRAGOLE]
Staphylococcus aureus [9]
  MIC: ≥ 1020 µg/mL
Staphylococcus aureus [10]
  MIC: ≥ 1020 µg/mL
Staphylococcus aureus [11]
  MIC: ≥ 1020 µg/mL
Staphylococcus aureus [12]
  MIC: ≥ 1020 µg/mL
Escherichia coli [13]
  MIC: 2050 µg/mL (≈ 13800 µM)
Candida albicans
  MIC: 2050 µg/mL (≈ 13800 µM)
[14]
  MIC: 16 µg/mL
[15]
  MIC: 256 µg/mL
[16]
  MIC: 256 µg/mL

## CC(C)=CCC/C(C)=C\CO [NEROL]
Staphylococcus aureus [9]
  MIC: ≥ 1020 µg/mL
Staphylococcus aureus [10]
  MIC: ≥ 1020 µg/mL
Staphylococcus aureus [11]
  MIC: ≥ 1020 µg/mL
Staphylococcus aureus [12]
  MIC: ≥ 1020 µg/mL
Escherichia coli [13]
  MIC: 512 µg/mL (≈ 3320 µM)
Candida albicans
  MIC: 212 µg/mL (≈ 1370 µM)
[14]
  MIC: 16 µg/mL
[17]
  MIC: 32 µg/mL (≈ 207 µM)

## CCN(CC)C(=O)/C=C/c1ccc(OC(C)=O)c(OC)c1
Staphylococcus aureus [18]
  MIC: > 125 µg/mL
[19]
  MIC: 4 µg/mL
Staphylococcus aureus [20]
  fractional inhibitory concentration index (FICI): 0.325
[21]
  MIC: 32 µg/mL

## CN(CC[C@H](N)CC(=O)N[C@H]1C=C[C@H](n2ccc(N)nc2=O)O[C@@H]1C(N)=O)C(=N)N
Staphylococcus aureus [22]
  MIC: 6.25 µg/mL (≈ 14.8 µM)
Staphylococcus aureus [23]
  MIC: 12.5 µg/mL (≈ 29.7 µM)
Staphylococcus aureus [24]
  MIC: 12.5 µg/mL (≈ 29.7 µM)
Escherichia coli [25]
  MIC: 12.5 µg/mL (≈ 29.7 µM)
Enterococcus faecalis
  MIC: 12.5 µg/mL (≈ 29.7 µM)
Enterococcus faecium
  MIC: 50 µg/mL (≈ 119 µM)
Klebsiella pneumoniae
  MIC: 50 µg/mL (≈ 119 µM)

## COc1cc(-c2cc(=O)c3c(O)cc(O)cc3o2)ccc1O [CHRYSOERIOL]
Staphylococcus aureus [26]
  MIC: 256 µg/mL (≈ 853 µM)
Staphylococcus aureus [27]
  fractional inhibitory concentration index (FICI): 0.266

## CC(/C=C/C(=O)N1CCCC1)=C\c1ccc2c(c1)CCC(C)O2 (centres undefined)
[28]
  MIC: 3.12 µg/mL

## CC(C)CCCC(C)CCO (centres undefined)
Staphylococcus aureus [9]
  MIC: ≥ 1020 µg/mL
Staphylococcus aureus [10]
  MIC: ≥ 1020 µg/mL
Staphylococcus aureus [11]
  MIC: ≥ 1020 µg/mL
Staphylococcus aureus [12]
  MIC: ≥ 1020 µg/mL
Escherichia coli [13]
  MIC: 2050 µg/mL (≈ 12900 µM)
Candida albicans
  MIC: 2050 µg/mL (≈ 12900 µM)
[14]
  MIC: 16 µg/mL
[17]
  MIC: 32 µg/mL (≈ 202 µM)

## O=c1c(-c2ccc(O)cc2)coc2cc(O)cc(O)c12 [GENISTEIN]
Staphylococcus aureus [29]
  MIC: 32 µg/mL (≈ 118 µM)
Staphylococcus aureus [30]
  MIC: 32 µg/mL (≈ 118 µM)
Staphylococcus aureus [31]
  MIC: 32 µg/mL (≈ 118 µM)
Staphylococcus aureus [32]
  MIC: 32 µg/mL (≈ 118 µM)
Staphylococcus aureus [33]
  MIC: 32 µg/mL (≈ 118 µM)
Staphylococcus aureus [34]
  MIC: 8 µg/mL (≈ 29.6 µM)
Staphylococcus aureus [35]
  fractional inhibitory concentration index (FICI): 0.38
[36]
  MIC: 16 µg/mL (≈ 59.2 µM)

## CC1(C)CC[C@]2(C)CC[C@]3(C)C(=CC[C@@H]4[C@@]5(C)CC[C@H](O)C(C)(C)[C@@H]5CC[C@]43C)[C@@H]2C1 [beta-AMYRIN]
Escherichia coli [37]
  MIC: 203 µg/mL
[38]
  MIC: 406 µg/mL

## C=C1CCC2CC1C2(C)C (stereo not drawn) [BETA-PINENE]
Staphylococcus aureus [39]
  MIC: > 1020 µg/mL
Staphylococcus aureus [40]
  MIC: > 1020 µg/mL
